Here are results for 4 compounds from patent US20110287432A1, “SYSTEM AND METHOD FOR TAILORING NUCLEOTIDE CONCENTRATION TO ENZYMATIC EFFICIENCIES IN DNA SEQUENCING TECHNOLOGIES” (454 Life Science Corporation, priority 2010, published 2011).

Experiment [1] deals with apyrase. The experiment in a line: Enzyme kinetics of apyrase across multiple nucleotides (Michaelis-Menten). The class given is biochemical. As to conditions: for Km: Michaelis constant of apyrase for the nucleotide species; for VApy-dNTP (estimated apyrase activity): Michaelis-Menten calculation, dTTP, α-thio-dATP, dCTP, dGTP at 40.3, 166.1, 16.3, 19.7 μM; for Vmax: maximum rate of apyrase for the nucleotide species; for Apyrase activity ratio: normalized to the value of dCTP. The text has this: The nucleotide species specific steady-state apyrase concentration may be computed using what is referred to as the Michaelis-Menten kinetics to mathematically approximate the kinetic characteristics of an enzyme based upon the assumption that simple kinetic conditions exist. The Michaelis-Menten equation uses constant values that vary by nucleotide species and include the Michaelis constant KM and the maximum rate Vmax of enzyme activity in a reaction environment.
In the present example, apyrase is effectively exposed to only one type of nucleotide species at a given time due to the iterative nature of the sequencing reagent flows. The reaction rates between apyrase and each nucleotide species can be estimated using the following formula: […]
where [dNTP] is the concentration of dTTP, dATP, dCTP or dGTP.
Continuing with the present example, the nucleotide species concentrations used for the computation for dTTP, α-thio-dATP, dCTP and dGTP are 40.3, 166.1, 16.3 and 19.7 μM respectively in the reaction environment. It will be appreciated that the concentration value for α-thio-dATP is substantially higher than the concentrations of the other nucleotide species which is due to the modification that has an inhibitory effect upon the incorporation efficiency of a polymerase enzyme (i.e. thus a higher concentration improves the likelihood of polymerase incorporation) as well as an increased processing efficiency of the apyrase as illustrated in greater detail below. In some embodiments the more “natural” dATP species may be used in place of α-thio-dATP and may have a different value for nucleotide species concentration reflecting the higher efficiency of enzyme processing for that species. The estimated activities of apyrase from the Michaelis-Menten calculation towards the different nucleotide species are shown in the Table 2 below. It should again be noted that the calculated efficiency of apyrase to α-thio-dATP illustrated in Table 2 is substantially higher than for the other species and thus apyrase would be expected to process a higher concentration of α-thio-dATP in an efficient manner.

For experiment [2], the system named is polymerase and apyrase. The experiment in a line: Sequencing of C. jejuni shotgun libraries, nucleotide-specific CAFIE fit of raw reads. The format is biochemical. As to conditions: average over 200 reads. The text has this:
In the present example, DNA Shotgun libraries of the genome C. jejuni were sequenced to calculate the nucleotide species concentrations optimized for polymerase and apyrase efficiencies. The second (TA) and the third (CG) columns of Table 4 show the relative percentage of T and A to C and G nucleotide species concentrations used in sequencing runs where a value for the 100% concentration may be based upon the calculated and normalized species relative ratio values from Table 3. For instance, using the figures from Table 3 100% of the G nucleotide species is 1.2 times greater the 100% of the C nucleotide species given the concentration ratio. Those of ordinary skill in the art will appreciate that C. jejuni is an AT rich genome generally meaning that there is a higher incidence of A and T nucleotide species in the genome composition than C and G nucleotide species. Thus, the relative percentages for TA and GC concentrations illustrated in FIG. 4 reflect that fact and typically would be different for a GC rich genome (i.e. the genome of T. thermophilus).
The average completion efficiency (i.e. to estimate incomplete extension) and carry forward values of each individual nucleotide species were inferred using a method described in detail below. The last column presents the average read lengths (RL) of the high quality reads obtained where increased read length correlates to an increased level of optimization of the combination of each nucleotide species concentration that is balanced for the species specific incorporation efficiency of polymerase to degradation efficiency of apyrase.
The average completion efficiencies and carry forward values of the individual nucleotide species were inferred using nucleotide-specific CAFIE (carry forward and incompletion extension) fit. For example, the sequencing process produces raw sequence reads typically processed by an embodiment of Image and Signal Processing software such as application 135. In the present example, application 135 maps (also referred to as an alignment by those of ordinary skill in the art) the raw sequence reads generated to a reference genome sequence associated with the samples sequenced, such as a consensus reference sequence of C. jejuni. As will be evident to those of ordinary skill, mapping/aligning the raw uncorrected sequence reads to a reference sequence can be employed to determine where CAFIE error occurs and determination of incidence of nucleotide species specific CAFIE error.
In the presently described example application 135 mapped 200 uncorrected sequence reads, represented as flowgrams, to the reference genome sequence and the first 100 iterations of the nucleotide flows considered for determination of optimal concentration of each of the nucleotide species by inferring the completion efficiencies and carry forward values. The detected signal strengths of each of the four nucleotide species were first normalized using the median 1-mer value for all nucleotide species. The term “1-mer value” as used herein generally refers to a value reflecting the degree of detected signal in response to an incorporation of a nucleotide species at a single sequence position which should be substantially the same for each of the nucleotide species. Typically this the 1-mer value is easiest to calculate from detected signals obtained at the beginning of a sequencing run of a template nucleic acid molecule because the key element in an adaptor includes a single representative of each nucleotide species in a key element at a known position (i.e. a TCAG key element) and thus it is expected that only a single nucleotide of each species is incorporated at each of the four sequence positions.
The completion efficiency and carry forward values illustrated in Table 4 can be inferred using a three-stage minimization process for each individual sequence read. […]

Where [3] appears, read: Run 1, relative concentration TA 120%, CG 140%.
Setting [4] is: Run 2, relative concentration TA 140%, CG 140%.
Setting [5] is: Run 3, relative concentration TA 120%, CG 160%.

Consider `Nc1ccn([C@H]2C[C@H](O)[C@@H](COP(=O)(O)OP(=O)(O)OP(=O)(O)O)O2)c(=O)n1` [dCTP], for which, in experiment [1], the Michaelis-Menten constant (Km) came to 76.5 µM, the “VApy-dNTP (estimated apyrase activity)” value is reported as 31.7 μM/10 min, the Vmax was found to be 250.0 μM/10 min and the Apyrase activity ratio is listed as 1.0. In addition, in experiment [2] (setting [3]), the average carry forward stood at 0.0062 and the average completion efficiency is 0.9988. In experiment [2] (setting [4]), the average carry forward is given as 0.0058 and the average completion efficiency is recorded as 0.9986. In addition, in experiment [2] (setting [5]), the average carry forward stood at 0.0065 and the average completion efficiency is listed as 0.9991.

Turning to `Nc1nc2c(ncn2[C@H]2C[C@H](O)[C@@H](COP(=O)(O)OP(=O)(O)OP(=O)(O)O)O2)c(=O)[nH]1` [dGTP], in experiment [1], the Km was 8.1 µM, the “VApy-dNTP (estimated apyrase activity)” value was 51.2 μM/10 min, the Vmax amounted to 47.4 μM/10 min and the Apyrase activity ratio is 1.6. Moreover, in experiment [2] (setting [3]), the average carry forward is on record as 0.0048 and the average completion efficiency came out at 0.9990. In experiment [2] (setting [4]), the average carry forward is given as 0.0075 and the average completion efficiency was 0.9992. In addition, in experiment [2] (setting [5]), the average carry forward came out at 0.0057 and the average completion efficiency worked out at 0.9994.

Turning to `Cc1cn([C@H]2C[C@H](O)[C@@H](COP(=O)(O)OP(=O)(O)OP(=O)(O)O)O2)c(=O)[nH]c1=O` [dTTP], in experiment [1], the Km came to 107 µM, the “VApy-dNTP (estimated apyrase activity)” value is given as 80.4 μM/10 min, the Vmax is reported as 294.1 μM/10 min and the Apyrase activity ratio is 2.5. In addition, in experiment [2] (setting [3]), the average carry forward is on record as 0.0006 and the average completion efficiency stood at 0.9968. Also, in experiment [2] (setting [4]), the average carry forward is recorded as 0.0013 and the average completion efficiency is 0.9975. For the same compound, in experiment [2] (setting [5]), the average carry forward came out at 0.0008 and the average completion efficiency was 0.9959.

Consider `Nc1ncnc2c1ncn2[C@H]1C[C@H](O)[C@@H](COP(O)(=S)OP(=O)(O)OP(=O)(O)O)O1` (stereo partly drawn) [α-thio-dATP], for which, in experiment [1], the Km was found to be 115 µM, the “VApy-dNTP (estimated apyrase activity)” value is on record as 137.5 μM/10 min, the Vmax is given as 232.6 μM/10 min and the Apyrase activity ratio amounted to 4.3. Moreover, in experiment [2] (setting [3]), the average carry forward is reported as 0.0035 and the average completion efficiency amounted to 0.9977. Besides, in experiment [2] (setting [4]), the average carry forward is recorded as 0.0033 and the average completion efficiency came to 0.9971. Further, in experiment [2] (setting [5]), the average carry forward amounted to 0.0043 and the average completion efficiency came to 0.9978.
